The record followed here is ChEMBL document CHEMBL1135541, “Synthesis, biological properties, and molecular modeling investigation of the first potent, selective, and water-soluble human A(3) adenosine receptor antagonist” (J Med Chem, 2002).

In experiment [1] the target is Adenosine receptors; A1 & A3 (Homo sapiens) (UniProt P30542+P0DMS8). Kind of experiment: Selectivity as ratio of Ki for human adenosine A1 and A3 receptors. Format: protein assay.
For experiment [2], the target named is Adenosine receptors; A2b & A3 (Homo sapiens) (UniProt P29275+P0DMS8). Kind of experiment: Selectivity as ratio of Ki for human A2b and A3 receptors. Format: protein assay.
The target of experiment [3] is Adenosine receptors; A2a & A3 (Homo sapiens) (UniProt P0DMS8+P29274). The experiment can be described thus: Selectivity as ratio of Ki for human adenosine A2A and A3 receptors. The class given is protein assay.
Experiment [4] is described as follows: The hydrophobicity was measured in reverse-phase TLC experiments and reported as Rm values; Rm = log(1/Rf - 1).
Experiment [5] has as its target Adenosine receptor A2a (Rattus norvegicus, UniProt P30543). Kind of experiment: Binding affinity against rat adenosine A2A receptor […]. The class given is cell-based.
Experiment [6] concerns the target T1, Adenosine receptor A3 (Rattus norvegicus, UniProt P28647).
T1 sequence (P28647 whole entry): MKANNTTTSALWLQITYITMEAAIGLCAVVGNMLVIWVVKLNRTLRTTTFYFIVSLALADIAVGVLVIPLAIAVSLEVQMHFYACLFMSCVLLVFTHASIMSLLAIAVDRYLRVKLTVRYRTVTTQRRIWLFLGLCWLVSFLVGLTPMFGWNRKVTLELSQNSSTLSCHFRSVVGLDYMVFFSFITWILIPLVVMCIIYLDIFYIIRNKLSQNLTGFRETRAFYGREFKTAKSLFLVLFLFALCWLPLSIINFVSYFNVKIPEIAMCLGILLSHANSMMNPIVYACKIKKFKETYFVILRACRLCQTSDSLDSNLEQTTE
Kind of experiment: Binding affinity against rat adenosine A3 receptor in RBL-2H3 cells. Format: cell-based.

Experiment [7] has as its target T2, Adenosine receptor A3 (Homo sapiens) (UniProt P0DMS8).
T2 sequence (whole entry): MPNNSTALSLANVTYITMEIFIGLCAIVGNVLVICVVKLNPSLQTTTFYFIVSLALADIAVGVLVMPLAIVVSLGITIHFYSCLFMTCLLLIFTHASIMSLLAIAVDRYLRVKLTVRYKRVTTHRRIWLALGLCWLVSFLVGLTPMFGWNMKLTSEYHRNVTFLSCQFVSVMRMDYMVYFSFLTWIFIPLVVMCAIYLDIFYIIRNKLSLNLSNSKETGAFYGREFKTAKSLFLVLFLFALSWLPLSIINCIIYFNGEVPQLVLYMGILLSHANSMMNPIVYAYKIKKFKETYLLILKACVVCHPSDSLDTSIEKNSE
Conditions: CHO.
Description: Antagonistic activity against Cl-IB-MECA26-induced inhibition of forskolin-stimulated cAMP in CHO cells expressing human Adenosine A3 receptor

Experiment [8] concerns the target T3, Adenosine receptor A1 (Rattus norvegicus, UniProt P25099).
T3 sequence (P25099 whole entry): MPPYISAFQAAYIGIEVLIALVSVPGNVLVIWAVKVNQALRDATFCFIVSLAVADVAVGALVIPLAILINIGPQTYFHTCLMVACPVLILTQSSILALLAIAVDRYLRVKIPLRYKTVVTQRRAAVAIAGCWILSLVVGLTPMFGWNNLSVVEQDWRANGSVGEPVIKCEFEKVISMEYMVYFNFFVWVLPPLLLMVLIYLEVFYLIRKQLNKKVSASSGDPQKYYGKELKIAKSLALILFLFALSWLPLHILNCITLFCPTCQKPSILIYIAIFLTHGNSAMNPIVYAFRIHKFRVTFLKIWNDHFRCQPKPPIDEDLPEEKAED
Kind of experiment: Binding affinity against rat adenosine A1 receptor […]. The class given is cell-based.

The target in experiment [9] is T4, Adenosine receptor A3 (Rattus norvegicus) (UniProt P28647).
T4 sequence (whole entry): T1 sequence (P28647 whole entry)
To be noted: RBL-2H3, 1 uM.
Description: Inhibitory activity against binding of [125I]I-AB-MECA to Adenosine A3 receptor in membranes of rat basophilic RBL-2H3 cells at 1 uM

For experiment [10], the target named is T5, Adenosine receptor A3 (Homo sapiens, UniProt P0DMS8).
T5 sequence (P0DMS8 whole entry): T2 sequence (whole entry)
The experiment can be described thus: Inhibitory activity against Human Adenosine A3 receptor expressed in CHO cells. The class given is cell-based.

Sequence of Adenosine receptors; A2a & A3 (Homo sapiens) (P29274 whole entry, looked up, one chain of several): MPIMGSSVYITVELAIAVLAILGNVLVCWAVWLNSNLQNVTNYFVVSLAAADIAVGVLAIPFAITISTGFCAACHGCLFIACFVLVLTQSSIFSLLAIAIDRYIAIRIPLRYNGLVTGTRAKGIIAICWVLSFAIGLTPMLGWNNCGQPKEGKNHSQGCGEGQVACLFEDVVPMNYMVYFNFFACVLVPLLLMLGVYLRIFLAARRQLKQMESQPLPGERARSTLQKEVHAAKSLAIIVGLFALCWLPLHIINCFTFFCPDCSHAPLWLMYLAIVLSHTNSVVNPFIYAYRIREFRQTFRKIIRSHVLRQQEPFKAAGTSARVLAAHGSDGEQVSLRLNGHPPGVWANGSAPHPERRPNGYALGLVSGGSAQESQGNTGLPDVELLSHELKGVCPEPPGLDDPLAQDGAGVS
Sequence of Adenosine receptor A2a (P30543 whole entry): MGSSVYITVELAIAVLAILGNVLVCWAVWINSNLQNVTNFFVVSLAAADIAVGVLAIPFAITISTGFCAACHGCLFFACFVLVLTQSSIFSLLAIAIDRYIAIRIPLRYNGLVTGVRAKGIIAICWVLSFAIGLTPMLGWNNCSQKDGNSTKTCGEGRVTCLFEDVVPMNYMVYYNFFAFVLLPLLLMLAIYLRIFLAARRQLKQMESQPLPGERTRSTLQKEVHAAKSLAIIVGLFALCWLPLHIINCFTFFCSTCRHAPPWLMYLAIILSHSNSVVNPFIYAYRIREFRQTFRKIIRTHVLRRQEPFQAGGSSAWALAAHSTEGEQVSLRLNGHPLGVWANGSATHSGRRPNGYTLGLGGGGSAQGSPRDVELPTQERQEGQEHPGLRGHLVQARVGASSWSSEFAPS

`Cn1cc2c(nc(NC(=O)Nc3ccc(S(=O)(=O)O)cc3)n3nc(-c4ccco4)nc23)n1`: the Selectivity in [1] is above 400; in experiment [2] it was above 400; in experiment [3], 24.
For the compound `Cn1cc2c(nc(NC(=O)Nc3ccncc3)n3nc(-c4ccco4)nc23)n1`, the Rm in [4] stood at 3.06. For the same compound, the Ki is 97.6 nM in experiment [5], above 1000 nM in experiment [6] and 226 nM in [8]. In [7], this compound registered a K B of 0.2 nM. In [9], this compound registered an inhibition of 35%.
In the case of `Cn1cc2c(nc(NC(=O)Nc3ccccc3)n3nc(-c4ccco4)nc23)n1`, in [10], 2.1 nM corresponded to half-maximal inhibition (IC50). Besides, the Selectivity in [1] amounted to 3710; in [2], 1390; in experiment [3] it was 2380.

As usually defined, the Ki is the dissociation constant of the complex between target and ligand, obtained from inhibition or displacement. A high value points to weaker binding. Broadly, the inhibition is the change of the read-out against control, counted positive when it falls. As a reminder, the IC50 is the concentration needed to halve the response being measured. The low end stands for higher potency, the high end for lower potency.
